Where a SMILES comes first, the peptide text is derived from it. [ ]: non-standard residue; d: D form. The star is where a group is joined. Sta = CC(C)C[C@H](N)[C@@H](O)CC(=O)O; Isovaleryl = CC(C)CC(=O)*; Isobutyryl = CC(C)C(=O)*

The target of the experiment is T1, Human renin (Homo sapiens, UniProt P00797).
T1 construct: Human plasma (lyophilized) was used as the source of human substrate and human renin; from tissue; host or cells: human plasma (lyophilized)
T1 sequence (P00797 67-406): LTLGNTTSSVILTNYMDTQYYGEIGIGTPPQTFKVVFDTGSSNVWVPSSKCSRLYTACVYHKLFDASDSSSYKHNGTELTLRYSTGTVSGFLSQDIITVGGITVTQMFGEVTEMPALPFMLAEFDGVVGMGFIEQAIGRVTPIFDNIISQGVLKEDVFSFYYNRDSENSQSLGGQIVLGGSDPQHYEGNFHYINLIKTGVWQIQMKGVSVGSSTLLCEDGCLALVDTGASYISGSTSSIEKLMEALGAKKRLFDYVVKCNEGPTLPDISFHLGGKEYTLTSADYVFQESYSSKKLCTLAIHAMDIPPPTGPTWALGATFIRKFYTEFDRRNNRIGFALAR
The experiment is described as follows: human renin assay, radioimmunoassay of angiotensin I in human plasma (Haber et al.). Type of experiment: biochemical. The note with it: for IC50: lyophilized human plasma as source of human substrate and human renin, read-out: I50 (M) Human renin. The method, then: In order to illustrate the pig renin inhibition and human renin inhibition of the peptide inhibitor of Example 1, the peptide was evaluated in the pig renin inhibition assay described in Rich et al., J. Med. Chem. 23:27, 1980, and was further evaluated in the human renin assay based on the method of Haber et al., J. Clin. Endocrinol. 29:1349, 1969. The latter method employs a radioimmunoassay technique to measure the amount of angiotensin I product created by renin cleavage of its substrate. Human plasma (lyophilized) was used as the source of human substrate and human renin. I50 values were obtained by plotting data at several inhibitor concentrations.

As to `CC(C)C[C@H](NC(=O)[C@H](Cc1c[nH]cn1)NC(=O)[C@H](Cc1ccccc1)NC(=O)[C@@H]1CCCN1C(=O)[C@H](Cc1c[nH]cn1)NC(=O)C(C)C)[C@@H](O)CC(=O)N[C@H](C(=O)N[C@@H](Cc1c[nH]cn1)C(=O)NCC(N)=O)C(C)C` [N-Isobutyryl-L-histidyl-L-prolyl-L-phenylalanyl-L-histidyl-(3S,4S)-statyl-L-valyl-L-histidyl-L-glycyl amide] (Isobutyryl-HPFH[Sta]VHG-NH2), the IC50 was 7.3e-08 M.

The inhibition is the percentage by which the read-out fell short of the control. Turning to `CC(C)CC(=O)N[C@H](C(=O)N[C@H](C(=O)N[C@@H](CC(C)C)[C@@H](O)CC(=O)N[C@@H](C)C(=O)N[C@@H](CC(C)C)[C@@H](O)CC(=O)O)C(C)C)C(C)C` [Pepstatin, iso-valeryl-Val--Val--Sta--Ala--Sta, reference compound] (Isovaleryl-VV[Sta]A[Sta]-OH), the inhibition at 1 µM (at 1.0 × 10^-6 M) is 20%.

In the case of `CC[C@H](C)[C@H](NC(=O)C[C@H](O)[C@H](CC(C)C)NC(=O)[C@H](Cc1c[nH]cn1)NC(=O)[C@H](Cc1ccccc1)NC(=O)[C@@H]1CCCN1C(=O)[C@H](Cc1c[nH]cn1)NC(=O)CC(C)C)C(=O)N[C@@H](Cc1c[nH]cn1)C(N)=O` [iso-Valeryl-His-Pro-Phe-His-Sta-Ile-His-NH2] (Isovaleryl-HPFH[Sta]IH-NH2), the IC50 turned out to be 7.3e-09 M.

The record behind these values is US4470971A, “Renin inhibitory peptides having His^13” (Merck & Co., Inc., priority 1982, dated 1984).
